{
  "source": "paper PMC10443802",
  "about": "“Targeting a xenobiotic transporter to ameliorate vincristine-induced sensory neuropathy” (JCI Insight, 2023)",
  "key": {"mOATP1B2 [1]": {"molecular_target": "T1, mOATP1B2 (Mus musculus, UniProt Q9JJL3)", "T1 sequence (Q9JJL3 1-689)": "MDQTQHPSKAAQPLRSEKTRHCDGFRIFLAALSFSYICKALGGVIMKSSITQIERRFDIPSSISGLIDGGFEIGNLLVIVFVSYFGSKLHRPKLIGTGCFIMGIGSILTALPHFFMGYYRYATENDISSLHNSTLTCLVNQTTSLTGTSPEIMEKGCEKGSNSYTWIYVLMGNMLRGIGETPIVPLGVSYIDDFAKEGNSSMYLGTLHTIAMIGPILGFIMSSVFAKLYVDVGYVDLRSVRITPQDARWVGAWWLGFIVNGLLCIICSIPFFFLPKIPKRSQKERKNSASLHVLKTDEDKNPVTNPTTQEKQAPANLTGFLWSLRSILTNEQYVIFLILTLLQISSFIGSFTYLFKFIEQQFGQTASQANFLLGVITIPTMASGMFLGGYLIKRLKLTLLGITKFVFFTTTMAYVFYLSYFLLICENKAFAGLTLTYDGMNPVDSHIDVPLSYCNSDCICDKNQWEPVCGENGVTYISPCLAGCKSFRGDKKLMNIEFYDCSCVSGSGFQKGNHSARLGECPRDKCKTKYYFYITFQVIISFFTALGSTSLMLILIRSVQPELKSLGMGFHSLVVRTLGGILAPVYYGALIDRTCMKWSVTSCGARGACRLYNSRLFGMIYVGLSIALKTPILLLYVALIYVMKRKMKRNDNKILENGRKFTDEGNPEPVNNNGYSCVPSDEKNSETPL", "test": "Nilotinib uptake in HEK293 cells overexpressing mOATP1B2", "format": "in vitro ADME", "conditions": "HEK293 cells overexpressing mOATP1B2 vs vector control"}, "OATP1B2": {"tested_on": "OATP1B2", "test": "Plasma level and DRG/plasma ratio of α-tocopherol in mice (biomarker of OATP1B2 function)", "format": "in vivo, mouse", "conditions": "WT mice treated with the inhibitor; plasma"}, "rOATP1A1": {"molecular_target": "rOATP1A1 (Rattus norvegicus, UniProt P46720)", "sequence (P46720 whole entry)": "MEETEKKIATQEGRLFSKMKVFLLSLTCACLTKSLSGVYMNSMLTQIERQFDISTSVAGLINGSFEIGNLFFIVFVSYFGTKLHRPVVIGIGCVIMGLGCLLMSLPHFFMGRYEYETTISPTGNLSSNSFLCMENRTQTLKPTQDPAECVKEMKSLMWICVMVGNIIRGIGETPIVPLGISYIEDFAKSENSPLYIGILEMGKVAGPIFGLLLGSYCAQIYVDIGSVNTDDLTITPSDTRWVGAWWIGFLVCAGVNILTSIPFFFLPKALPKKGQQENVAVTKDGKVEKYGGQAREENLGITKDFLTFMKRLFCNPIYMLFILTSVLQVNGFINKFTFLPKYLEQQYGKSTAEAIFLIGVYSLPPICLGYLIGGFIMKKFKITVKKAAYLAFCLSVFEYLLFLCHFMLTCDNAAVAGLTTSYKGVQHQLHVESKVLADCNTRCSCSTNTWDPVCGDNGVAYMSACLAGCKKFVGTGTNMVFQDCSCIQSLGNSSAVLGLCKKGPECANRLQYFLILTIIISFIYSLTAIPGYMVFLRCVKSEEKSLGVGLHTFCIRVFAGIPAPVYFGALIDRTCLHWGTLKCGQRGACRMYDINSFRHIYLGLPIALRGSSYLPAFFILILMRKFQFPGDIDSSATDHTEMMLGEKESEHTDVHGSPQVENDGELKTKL", "test": "Vincristine uptake screen, HeLa cells overexpressing rOATP1A1", "format": "in vitro ADME", "procedure": "Relative uptake is expressed as percentage change compared with empty vector controls (n = 4–14 per group). […] Human OATP1B1 and OATP1B3 transporter–overexpressed cells were used as positive controls; empty vector controls were used as the negative control. […] Mechanical allodynia (C), thermal hyperalgesia (D), and sciatic nerve maximal action potential amplitudes (E) are expressed as percentage change relative to baseline values (n = 6–8 per group). Statistical analysis was performed using a 2-way ANOVA with Bonferroni’s post hoc test. **P < 0.01, ***P < 0.001, ****P < 0.0001, compared with baseline values. […] Data are shown as mean ± SEM. […]\ntransfected with transporters of interest, including hOAT1, hOAT3, hOAT4, hOATP1A2, hOATP3A1, hOATP4A1, hOATP5A1, hOATP1C1, hOATP1B1, hOATP1B3, hOATP2B1, hOCT1, hOCT2, hOCTN1, hOCTN2, hASBT, hNTCP, hNPT1, hMATE1, hOSTα/β, hPEPT1, hPEPT2, rOatp1a1, rOatp1a4, rOatp1a5, rOatp1b2, rNtcp, rAsbt, rOat1, and rOct1. Cells were transfected with expression plasmid or vector control lacking any insert using Lipofectin reagent (Invitrogen). […] The cellular radioactivity was quantified by liquid scintillation counting as described above. […]\nSamples were analyzed using real-time quantitative PCR and Taqman Probes (Applied Biosystems). The relative gene expression was determined using the ΔΔCt method, and normalized to the mouse or human housekeeping gene, GAPDH. […]"}, "K562": {"tested_on": "K562", "test": "Cytotoxicity of vincristine with or without nilotinib, MTT assay, K562", "format": "cell-based", "conditions": "Homo sapiens, K562, K562 cells, vincristine + 1μM Nilotinib, individual replicates"}, "mOATP1B2 [2]": {"molecular_target": "T1, mOATP1B2", "test": "Vincristine uptake, HEK293 cells overexpressing mOATP1B2", "format": "in vitro ADME", "excerpt": "Relative uptake is expressed as percentage change compared with empty vector controls (n = 4–14 per group). […] Human OATP1B1 and OATP1B3 transporter–overexpressed cells were used as positive controls; empty vector controls were used as the negative control. LD, 100 bp ladder. […] Mechanical allodynia (C), thermal hyperalgesia (D), and sciatic nerve maximal action potential amplitudes (E) are expressed as percentage change relative to baseline values (n = 6–8 per group). Statistical analysis was performed using a 2-way ANOVA with Bonferroni’s post hoc test. **P < 0.01, ***P < 0.001, ****P < 0.0001, compared with baseline values. […] Data are shown as mean ± SEM.\nAxioskop WideField Light Microscope, as described previously (10). Representative images were captured with a QIClick Digital CCD color camera.\nThe histograms of g-ratio (axonal diameter/whole fiber diameter as a measure of myelination degree in each fiber) distribution were generated. An observer blinded to the group compositions performed all the morphometric determinations. […]\nAfter incubation, transport was halted by aspirating radiolabeled drug, and rinsing the cells three times with ice-cold 1X PBS. Total radioactivity originating from the substrates was measured by lysing the cells with 1N NaOH, neutralized with 2N HCL, and measuring total radioactivity by liquid scintillation counting using an LS 6500 Counter (Beckman). […]"}},
  "note": "“And” between values parts separate entries of the source, which are not always exact repeats. Equal entries are not always repeated.",
  "data": [
    {"smiles": "Cc1cn(-c2cc(NC(=O)c3ccc(C)c(Nc4nccc(-c5cccnc5)n4)c3)cc(C(F)(F)F)c2)cn1", "note": "[Nilotinib, nilotinib]", "values": [
      {"measurement": "Nilotinib uptake (% of control)", "setting": "mOATP1B2 [1]", "value": "68.9093 % of control and 50.5858 % of control and 83.427 % of control"},
      {"measurement": "Level of α-tocopherol (% of wild-type baseline), Plasma", "setting": "OATP1B2", "value": "242.352% and 175.541% and 133.994%"}
    ]},
    {"smiles": "CC[C@]1(O)C[C@H]2CN(CCc3c([nH]c4ccccc34)[C@@](C(=O)OC)(c3cc4c(cc3OC)N(C=O)[C@H]3[C@@](O)(C(=O)OC)[C@H](OC(C)=O)[C@]5(CC)C=CCN6CC[C@]43[C@@H]65)C2)C1", "note": "[Vincristine, vincristine]", "values": [
      {"measurement": "Vincristine uptake (% of vector control)", "setting": "rOATP1A1", "value": "102.00 % of vector control and 84.00 % of vector control and 73.00 % of vector control and 95.00 % of vector control and 74.00 % of vector control and 58.00 % of vector control and 71.00 % of vector control and 62.00 % of vector control"},
      {"measurement": "IC50", "setting": "K562", "value": 17.5, "unit": "nM"},
      {"measurement": "Vincristine uptake (% of vector control)", "setting": "mOATP1B2 [2]", "value": "209.00 % of vector control and 219.00 % of vector control and 238.00 % of vector control and 218.00 % of vector control and 216.00 % of vector control and 220.00 % of vector control"}
    ]}
  ]
}
